Source: US20250325256A1, “LIPID PATCH” (SENSACH AB, priority 2021, published 2025)

Assays:
[1] = format: in vitro ADME, pig
Procedure: Therefore, identical reverse iontophoretic extraction experiments were performed with an empty donor solution (i.e., neat PBS buffer pH 7.4) and the results are shown in FIG. 14. As in the previous section, Trp was extracted towards both receptor compartments, however, the main direction of extraction was towards the cathode. […] This is most likely due to the fact that the amount of extracted Kyn was below the limit of detection by means of HPLC-UV. Therefore, a more sensitive analysis technique is required for quantification of endogenously present Kyn. The cumulative amount of extracted Trp to the cathode was 0.44±0.06 nmol/cm^2 and the anode 0.22±0.05 nmol/cm^2.
Control reverse iontophoretic extraction experiments were conducted in order to estimate the levels of endogenous Trp and, potentially Kyn. It is known that Trp is present in the SC as a part of natural moisturizing factor (NMF), which primarily consists of free amino acids and their derivatives55,56. These experiments were performed using the identical experimental setup with a neat PBS buffer (pH 7.4) in the donor compartment (i.e., no Trp or Kyn being present) and 10 mM HEPES with 60 mM NaCl as background electrolyte (pH 7.4). Sampling was performed once an hour for 6 hours by withdrawing 1 mL of receptor solution and replacing it with a 1 mL of fresh HEPES buffer).

[2] = Post iontophoretic passive extraction (further 18 hours); format: in vitro ADME, pig; details: for Normalized cumulative amount at anode / Normalized cumulative amount at cathode: mean ± SEM
Description: Therefore, while enhancing extraction at the cathode, electroosmosis (at pH>skin pI) retards the extraction of anions and zwitterions towards the anode as they have to move against the solvent flow. This may result in a build-up of zwitterions moving towards the anode and against the electroosmotic flow. Therefore, the skin membrane that faces the anodal compartment could potentially contain higher amounts of zwitterionic compounds compared to the skin membrane facing the cathodal compartment. In order to further investigate the effect of electroosmosis, the post iontophoretic passive extraction experiments were performed for another 18 hours.
The effect of receptor solution pH on the cumulative amount of endogenous substances extracted from the skin membrane during post iontophoretic passive extraction as well as from passive control experiments is shown in FIG. 16. […] Moreover, in post iontophoretic experiments, there was an increase in the amount of endogenous substances passively extracted into anode compartment with increased pH. In order to determine the amount of endogenous substances obtained during the post iontophoretic step, the cumulative amount of endogenous substances extracted during 6 hours of reverse iontophoresis were subtracted from the total cumulative amount.
In extraction experiments preformed without a cubic phase, sampling was performed every hour for six hours by withdrawing 1 mL from the receptor compartments and replacing it with 1 mL of neat buffer solution. After the final sampling the current was stopped and the donor compartment was emptied. The post iontophoretic passive extraction from the skin membranes was allowed to continue for another 18 hours in order to investigate the effect of electroosmosis, since the skin membrane was the only source of endogenous substance after removal of donor solution. In total 7 samplings were performed over 24 hours i.e., 6 during the current passage and 1 from the post iontophoretic passive extraction. In case of reverse iontophoretic extraction into the cubic phase, the sampling was performed in the same way i.e., every hour for 6 hours 1 mL of receptor solution was replaced with a 1 mL of a neat buffer. However, in contrast to previous procedure, the experiment was terminated after 6 hours of current passage. The cubic phase was collected into 1.7 mL Eppendorf tube ensuring that as little residue as possible was left on the skin surface. The extraction of endogenous substances from the cubic phase was performed as follows: 1 mL of Milli-Q water was added to the cubic phase and left on shaker for 1 hour. After that, each Eppendorf tube was vortex for 1 minute and the final aqueous solution was collected with a syringe. Small part of a cubic phase was taken for SAXD measurements in order to investigate any potential changes in the phase after reverse iontophoretic experiment.

[3] = Reverse iontophoretic extraction into GMO cubic phase receptor matrix; format: in vitro ADME, pig; details: for Cumulative amount Cubic at anode / Cumulative amount Cubic at cathode: in the cubic phase, 6 h, HEPES pH 7.4; for Cumulative amount Total at anode / Cumulative amount Total at cathode: sum of receptor solution after 6 hours and cubic phase
Procedure: Another objective of the present intention was to investigate the potency of a liquid crystalline cubic phase formed by GMO and water to serve as a matrix for iontophoresis. In order to keep experimental conditions as similar as possible to the previously described experiments, the same horizontal side-by-side cells were used. A fully swollen cubic phase (Pn3m space group) was added into a custom-made sample holder ensuring the formulation was in contact with the skin. In order to prevent contact between the cubic phase and the electrodes, 2 mL of HEPES buffer (pH 7.4, 60 mM NaCl) was added to each receptor compartment. Sampling was performed by withdrawing 1 ml of receptor solution and replacing it with a 1 mL of empty buffer every hour for 6 hours. After the last sampling, the experiment was terminated, and the cubic phase was collected for further analysis. […] It is important to point out that partitioning of Trp and Kyn into cubic bilayer was not taken into account during the calculation of the extracted amounts of respective endogenous substance. The amounts were determined based on the volume of the receptor matrix (100 μL).
The samples for reverse iontophoretic extraction experiments consisting of a liquid crystalline cubic phase were prepared by weighing 0.1 g of glycerol monooleate (GMO) in a 1.8 mL glass vials. GMO was then melted at 45° C. by immersing the vials in the water bath and centrifuged at 1000 g for 5 minutes. The vials were then placed in the freezer (−20° C.) for 30 minutes in order for GMO to crystalize. After crystallization vials were taken out of the freezer and 0.5 g of Milli-Q water was added to each vial, ensuring the excess of added water. […] Prior to use, each vial was examined between cross polarizers for any sign of anisotropy, which would imply that sample had not yet reached equilibrium. […]

[4] = pH 4.0, 24 h amount minus first 6 hours
[5] = pH 4.0, from normalized cumulative amounts
[6] = pH 7.4, 24 h amount minus first 6 hours
[7] = pH 7.4, from normalized cumulative amounts
[8] = pH 9.0, 24 h amount minus first 6 hours
[9] = pH 9.0, from normalized cumulative amounts

| SMILES | Normalized cumulative amount at anode [2, 4] | Normalized cumulative amount at cathode [2, 4] | Normalized cumulative amount at anode [2, 6] | Normalized cumulative amount at cathode [2, 6] | Normalized cumulative amount at anode [2, 8] | Normalized cumulative amount at cathode [2, 8] | Cumulative amount Cubic at anode [3] | Cumulative amount Cubic at cathode [3] | Cumulative amount Total at anode [3] | Cumulative amount Total at cathode [3] | also measured |
| --- | --- | --- | --- | --- | --- | --- | --- | --- | --- | --- | --- |
| N[C@@H](Cc1c[nH]c2ccccc12)C(=O)O [Trp, L-tryptophan] | 6.22 ± 1.49 nmol/cm^2 | 5.36 ± 1.32 nmol/cm^2 | 14.13 ± 2.25 nmol/cm^2 | 7.38 ± 2.57 nmol/cm^2 | 17.52 ± 1.58 nmol/cm^2 | 9.77 ± 1.95 nmol/cm^2 | 0.68 ± 0.05 nmol/cm^2 | 5.29 ± 0.48 nmol/cm^2 | 0.68 ± 0.05 nmol/cm^2 | 6.57 ± 1.00 nmol/cm^2 | contribution of endogenous Trp to the total cumulative amount of extracted Trp (at the cathode) ([1]; pig, 6 h, pH 7.4): approximately 6%; cumulative amount of extracted endogenous Trp to the anode ([1]; pig, 6 h, pH 7.4): 0.22±0.05 nmol/cm^2; cumulative amount of extracted endogenous Trp to the cathode ([1]; pig, 6 h, pH 7.4): 0.44±0.06 nmol/cm^2; Ratio (Trp/Kyn) at anode [2, 5]: 1.19 ± 0.17; Ratio (Trp/Kyn) at cathode [2, 5]: 1.05 ± 0.03; Ratio (Trp/Kyn) at anode [2, 7]: 0.99 ± 0.02; Ratio (Trp/Kyn) at cathode [2, 7]: 0.86 ± 0.08; Ratio (Trp/Kyn) at anode [2, 9]: 0.89 ± 0.02; Ratio (Trp/Kyn) at cathode [2, 9]: 0.95 ± 0.02; Ratio Trp/Kyn at cathode cubic ([3]; from amounts in the cubic phase): 0.94 ± 0.04; Ratio Trp/Kyn at cathode total ([3]; from the total cumulative amount): 0.86 ± 0.05 |
| Nc1ccccc1C(=O)C[C@H](N)C(=O)O [Kyn, L-kynurenine] | 6.56 ± 2.40 nmol/cm^2 | 5.31 ± 1.35 nmol/cm^2 | 14.35 ± 2.33 nmol/cm^2 | 2.12 ± 8.37 nmol/cm^2 | 19.90 ± 2.45 nmol/cm^2 | 10.29 ± 2.07 nmol/cm^2 | 0.28 ± 0.28 nmol/cm^2 | 5.62 ± 0.45 nmol/cm^2 | 0.28 ± 0.28 nmol/cm^2 | 7.53 ± 0.83 nmol/cm^2 | detection of endogenous Kyn [1]: no Kyn was detected |
